This note sets out measurements from patent US10988524B2, “Modified relaxin B chain peptides and their therapeutic use” (priority 2018, dated 2021).

Non-standard residues stand in square brackets, D forms with d. Residues, ends and D or L forms follow the SMILES beside them. 1Nal = N[C@@H](Cc1cccc2ccccc12)C(=O)O; αMeL = CC(C)C[C@](C)(N)C(=O)O; Nle = CCCC[C@H](N)C(=O)O; Aib = CC(C)(N)C(=O)O

The experiment deals with T1, RXFP1 (Homo sapiens, UniProt Q9HBX9).
T1 sequence (Q9HBX9 1-757): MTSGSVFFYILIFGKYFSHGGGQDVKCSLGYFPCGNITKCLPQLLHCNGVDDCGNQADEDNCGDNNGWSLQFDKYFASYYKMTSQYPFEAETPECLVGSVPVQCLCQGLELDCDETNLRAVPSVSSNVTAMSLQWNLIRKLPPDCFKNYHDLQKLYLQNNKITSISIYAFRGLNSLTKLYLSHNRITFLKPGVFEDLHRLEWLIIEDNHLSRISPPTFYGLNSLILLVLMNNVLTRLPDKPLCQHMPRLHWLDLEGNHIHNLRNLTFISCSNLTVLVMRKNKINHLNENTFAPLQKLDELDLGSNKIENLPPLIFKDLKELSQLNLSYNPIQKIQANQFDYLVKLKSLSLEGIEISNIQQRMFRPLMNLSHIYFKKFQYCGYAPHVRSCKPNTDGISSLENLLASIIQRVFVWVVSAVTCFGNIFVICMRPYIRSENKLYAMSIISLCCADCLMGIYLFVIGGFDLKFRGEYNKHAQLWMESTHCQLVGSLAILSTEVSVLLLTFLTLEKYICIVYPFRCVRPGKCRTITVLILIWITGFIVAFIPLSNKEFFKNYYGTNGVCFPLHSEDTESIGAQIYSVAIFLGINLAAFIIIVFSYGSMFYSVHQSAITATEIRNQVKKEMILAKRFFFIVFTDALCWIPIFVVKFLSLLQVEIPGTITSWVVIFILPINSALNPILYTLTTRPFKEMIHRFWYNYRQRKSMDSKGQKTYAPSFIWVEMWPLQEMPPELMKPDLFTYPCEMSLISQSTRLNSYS
Put plainly: OVCAR5 cAMP assay (RXFP1 agonist activity, HTRF). Conditions: for Emax: OVCAR-5, read-out: cAMP assay in OVCAR 5 cells Emax, maximal intracellular cAMP relative to H2-relaxin in the same test occasion; for EC50: cAMP assay in OVCAR 5 cells EC50 (nM), OVCAR5 cells expressing endogenous RXFP1, cAMP by HTRF, 30 min at 37° C., 1 mM IBMX.

On to `CC[C@H](C)[C@H](NC(=O)C(C)(C)NC(=O)[C@H](C)NC(=O)[C@H](CCCNC(=N)N)NC(=O)[C@@H](NC(=O)[C@H](CCCCN)NC(=O)[C@H](CCC(=O)O)NC(=O)[C@H](CCCNC(=N)N)NC(=O)CNC(=O)[C@H](CCC(=O)O)NC(=O)[C@H](CC(C)C)NC(C)=O)C(C)C)C(=O)NC(C)(C)C(=O)NC(C)(C)C(=O)N[C@@H](CCC(=O)O)C(=O)NCC(=O)N[C@@H](CCSC)C(=O)N[C@@H](CO)C(=O)N[C@H](C(=O)N[C@@H](Cc1c[nH]c2ccccc12)C(=O)N[C@@H](CO)C(=O)NC(C)(C)C(=O)N[C@@H](CCCNC(=N)N)C(N)=O)[C@@H](C)O` [compound 43] (Ac-LEGREKVRA[Aib]I[Aib][Aib]EGMSTWS[Aib]R-NH2), for which the Emax came to 104%.
Same read-out and setting: as for `CC[C@H](C)[C@H](NC(=O)[C@H](CCC(N)=O)NC(=O)[C@H](C)NC(=O)[C@H](CCCNC(=N)N)NC(=O)[C@@H](NC(=O)[C@H](CCCCN)NC(=O)[C@H](CCC(=O)O)NC(=O)[C@H](CCCNC(=N)N)NC(=O)CNC(=O)[C@H](CCC(=O)O)NC(=O)[C@H](CC(C)C)NC(C)=O)C(C)C)C(=O)NC(C)(C)C(=O)NC(C)(C)C(=O)N[C@@H](CCC(=O)O)C(=O)NCC(=O)N[C@@H](CCSC)C(=O)N[C@@H](CO)C(=O)N[C@@H](CCCCN)C(=O)N[C@@H](Cc1c[nH]c2ccccc12)C(=O)N[C@@H](CO)C(=O)NC(C)(C)C(=O)N[C@@H](CCCNC(=N)N)C(N)=O` [compound 46] (Ac-LEGREKVRAQI[Aib][Aib]EGMSKWS[Aib]R-NH2), the figure is 82%; as for `CC[C@H](C)[C@H](NC(=O)[C@H](CCC(N)=O)NC(=O)[C@H](C)NC(=O)[C@H](CCCNC(=N)N)NC(=O)[C@@H](NC(=O)[C@H](CCCCN)NC(=O)[C@H](CCC(=O)O)NC(=O)[C@H](CCCNC(=N)N)NC(=O)CNC(=O)[C@H](CCC(=O)O)NC(=O)[C@H](CC(C)C)NC(C)=O)C(C)C)C(=O)NC(C)(C)C(=O)NC(C)(C)C(=O)N[C@@H](CCC(=O)O)C(=O)NCC(=O)N[C@@H](CCSC)C(=O)N[C@@H](CO)C(=O)N[C@H](C(=O)N[C@@H](Cc1c[nH]c2ccccc12)C(=O)N[C@@H](CO)C(=O)N[C@@H](CCCCN)C(=O)N[C@@H](CCCNC(=N)N)C(N)=O)[C@@H](C)O` [compound 40] (Ac-LEGREKVRAQI[Aib][Aib]EGMSTWSKR-NH2), 103%; as for `CCCC[C@H](NC(=O)CNC(=O)[C@H](CCC(=O)O)NC(=O)C(C)(C)NC(=O)C(C)(C)NC(=O)[C@@H](NC(=O)[C@H](CCC(N)=O)NC(=O)[C@H](C)NC(=O)[C@H](CCCNC(=N)N)NC(=O)[C@@H](NC(=O)[C@H](CCCCN)NC(=O)[C@H](CCC(=O)O)NC(=O)[C@H](CCCNC(=N)N)NC(=O)CNC(=O)[C@H](CCC(=O)O)NC(=O)[C@H](CC(C)C)NC(C)=O)C(C)C)[C@@H](C)CC)C(=O)N[C@@H](CO)C(=O)N[C@H](C(=O)N[C@@H](Cc1c[nH]c2ccccc12)C(=O)N[C@H](C(=O)NC(C)(C)C(=O)N[C@@H](CCCNC(=N)N)C(=O)N[C@@H](CCCCN)C(=O)N[C@@H](CCCCN)C(N)=O)[C@@H](C)O)[C@@H](C)O` [compound 23] (Ac-LEGREKVRAQI[Aib][Aib]EG[Nle]STWT[Aib]RKK-NH2), 95%.
The same measure, in the same setting: as for `CC[C@H](C)[C@H](NC(=O)[C@H](CCC(N)=O)NC(=O)[C@H](C)NC(=O)[C@H](CCCNC(=N)N)NC(=O)[C@@H](NC(=O)[C@H](CCCCN)NC(=O)[C@H](CCC(=O)O)NC(=O)[C@H](CCCNC(=N)N)NC(=O)CNC(=O)[C@H](CCC(=O)O)NC(=O)[C@H](CC(C)C)NC(C)=O)C(C)C)C(=O)NC(C)(C)C(=O)N[C@H](C(=O)N[C@@H](CCC(=O)O)C(=O)NCC(=O)N[C@@H](CCSC)C(=O)N[C@@H](CO)C(=O)N[C@@H](CCCCN)C(=O)N[C@@H](Cc1cccc2ccccc12)C(=O)N[C@@H](CO)C(=O)N[C@@H](CCCCN)C(=O)N[C@@H](CCCNC(=N)N)C(=O)N[C@@H](CCCCN)C(=O)N[C@@H](CCCCN)C(N)=O)[C@@H](C)CC` [compound 9] (Ac-LEGREKVRAQI[Aib]IEGMSK[1Nal]SKRKK-NH2), the figure is 100%.
Regarding `CCCC[C@H](NC(=O)CNC(=O)[C@H](CCC(=O)O)NC(=O)C(C)(C)NC(=O)C(C)(C)NC(=O)[C@@H](NC(=O)[C@H](CCCCNC(C)=O)NC(=O)[C@H](C)NC(=O)[C@H](CCCNC(=N)N)NC(=O)[C@@H](NC(=O)[C@H](CCCCN)NC(=O)[C@H](CCC(=O)O)NC(=O)[C@H](CCCNC(=N)N)NC(=O)CNC(=O)[C@H](CCC(=O)O)NC(=O)[C@H](CC(C)C)NC(C)=O)C(C)C)[C@@H](C)CC)C(=O)N[C@@H](CO)C(=O)N[C@H](C(=O)N[C@@H](Cc1c[nH]c2ccccc12)C(=O)N[C@@H](CO)C(=O)N[C@@H](CCCCNC(C)=O)C(=O)N[C@@H](CCCNC(=N)N)C(=O)N[C@@H](CCCCN)C(=O)N[C@@H](CCCCN)C(N)=O)[C@@H](C)O` [compound 25] (Ac-LEGREKVRAK(Ac)I[Aib][Aib]EG[Nle]STWSK(Ac)RKK-NH2), the Emax stood at 100% and the EC50 is at most 5 nM.
Regarding `CCCC[C@H](NC(=O)CNC(=O)[C@H](CCC(=O)O)NC(=O)C(C)(C)NC(=O)C(C)(C)NC(=O)[C@@H](NC(=O)[C@H](CCCCNC(C)=O)NC(=O)[C@H](C)NC(=O)[C@H](CCCNC(=N)N)NC(=O)[C@@H](NC(=O)[C@H](CCCCN)NC(=O)[C@H](CCC(=O)O)NC(=O)[C@H](CCCNC(=N)N)NC(=O)CNC(=O)[C@H](CCC(=O)O)NC(=O)[C@H](CC(C)C)NC(C)=O)C(C)C)[C@@H](C)CC)C(=O)N[C@@H](CO)C(=O)N[C@H](C(=O)N[C@@H](Cc1c[nH]c2ccccc12)C(=O)N[C@@H](CO)C(=O)NC(C)(C)C(=O)N[C@@H](CCCNC(=N)N)C(=O)N[C@@H](CCCCNC(C)=O)C(=O)N[C@@H](CCCCN)C(N)=O)[C@@H](C)O` [compound 27] (Ac-LEGREKVRAK(Ac)I[Aib][Aib]EG[Nle]STWS[Aib]RK(Ac)K-NH2), the Emax was 95% and the EC50 came to 9.5 nM.
For `CCCC[C@H](NC(=O)CNC(=O)[C@H](CCC(=O)O)NC(=O)C(C)(C)NC(=O)C(C)(C)NC(=O)[C@@H](NC(=O)[C@H](CCCCNC(C)=O)NC(=O)[C@H](C)NC(=O)[C@H](CCCNC(=N)N)NC(=O)[C@@H](NC(=O)[C@H](CCCCN)NC(=O)[C@H](CCC(=O)O)NC(=O)[C@H](CCCNC(=N)N)NC(=O)CNC(=O)[C@H](CCC(=O)O)NC(=O)[C@](C)(CC(C)C)NC(C)=O)C(C)C)[C@@H](C)CC)C(=O)N[C@@H](CO)C(=O)N[C@H](C(=O)N[C@@H](Cc1c[nH]c2ccccc12)C(=O)N[C@@H](CO)C(=O)NC(C)(C)C(=O)N[C@@H](CCCNC(=N)N)C(=O)N[C@@H](CCCCN)C(=O)N[C@@H](CCCCNC(C)=O)C(N)=O)[C@@H](C)O` [compound 56] (Ac-[αMeL]EGREKVRAK(Ac)I[Aib][Aib]EG[Nle]STWS[Aib]RKK(Ac)-NH2), the Emax is 95%.
For the compound `CC[C@H](C)[C@H](NC(=O)[C@H](CCC(N)=O)NC(=O)[C@H](C)NC(=O)[C@H](CCCNC(=N)N)NC(=O)[C@@H](NC(=O)[C@H](CCCCN)NC(=O)[C@H](CCC(=O)O)NC(=O)[C@H](CCCNC(=N)N)NC(=O)CNC(=O)[C@H](CCC(=O)O)NC(=O)[C@H](CC(C)C)NC(C)=O)C(C)C)C(=O)NC(C)(C)C(=O)NC(C)(C)C(=O)N[C@@H](CCC(=O)O)C(=O)NCC(=O)N[C@@H](CCC(N)=O)C(=O)N[C@@H](CO)C(=O)N[C@H](C(=O)N[C@@H](Cc1ccccc1)C(=O)N[C@@H](CO)C(=O)NC(C)(C)C(=O)N[C@@H](CCCNC(=N)N)C(=O)N[C@@H](CCCCN)C(=O)N[C@@H](CCCCN)C(N)=O)[C@@H](C)O` [compound 57] (Ac-LEGREKVRAQI[Aib][Aib]EGQSTFS[Aib]RKK-NH2), the Emax is 91% and a half-maximal effect (EC50) was put at 24.4 nM.

What is called Emax is the size of the effect at its maximum, as opposed to the concentration needed. The term EC50 denotes the midpoint of the concentration-response curve. The low end stands for higher potency in that assay, the high end for lower potency in that assay.
